52 molecules from patent US20200377505A1, “BENZIMIDAZOLES AND AZA-BENZIMIDAZOLES, AND METHODS OF USE THEREOF” (Goldfinch Bio., Inc., priority 2017, published 2020) can be followed below.

Assay [1] deals with T1, human TRPC6 (Homo sapiens, UniProt Q9Y210).
T1 construct: expressed in transfected cells; host or cells: HEK 293
T1 sequence (Q9Y210 1-931): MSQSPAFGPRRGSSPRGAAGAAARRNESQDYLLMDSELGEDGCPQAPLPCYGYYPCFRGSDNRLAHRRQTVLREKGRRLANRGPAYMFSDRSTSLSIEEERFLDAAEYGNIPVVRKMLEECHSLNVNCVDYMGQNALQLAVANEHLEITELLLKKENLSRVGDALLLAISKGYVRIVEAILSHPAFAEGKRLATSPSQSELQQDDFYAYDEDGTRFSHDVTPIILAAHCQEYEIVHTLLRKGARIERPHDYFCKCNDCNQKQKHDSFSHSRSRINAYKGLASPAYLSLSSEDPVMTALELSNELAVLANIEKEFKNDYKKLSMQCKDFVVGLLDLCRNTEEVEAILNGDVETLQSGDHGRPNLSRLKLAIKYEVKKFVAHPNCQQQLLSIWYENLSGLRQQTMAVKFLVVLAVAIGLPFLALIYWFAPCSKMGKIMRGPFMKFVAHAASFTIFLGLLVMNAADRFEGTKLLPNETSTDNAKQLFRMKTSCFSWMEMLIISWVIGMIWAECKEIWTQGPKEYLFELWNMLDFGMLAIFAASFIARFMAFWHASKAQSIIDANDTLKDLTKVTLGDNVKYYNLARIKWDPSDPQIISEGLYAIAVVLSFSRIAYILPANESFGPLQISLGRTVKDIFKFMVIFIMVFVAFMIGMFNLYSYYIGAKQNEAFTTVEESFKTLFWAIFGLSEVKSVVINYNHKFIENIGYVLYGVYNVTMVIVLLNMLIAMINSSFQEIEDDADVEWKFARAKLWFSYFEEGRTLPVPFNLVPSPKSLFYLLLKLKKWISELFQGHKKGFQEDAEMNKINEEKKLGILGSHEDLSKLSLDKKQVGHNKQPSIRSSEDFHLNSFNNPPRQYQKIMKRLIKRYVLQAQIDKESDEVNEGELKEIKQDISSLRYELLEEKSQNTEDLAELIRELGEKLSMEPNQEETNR
Description: TRPC6 fluorescence-based assay (Ca2+ flux assay in FLIPR format), cells overexpressing TRPC6. It is filed as cell-based. As to conditions: 5 μM of test compound, following Carbachol stimulation. (A change in cytosolic calcium serves as a functional read-out for many receptors and channels.)

Assay [2] addresses T2, human TRPC5 (Homo sapiens, UniProt Q9UL62).
T2 construct: expressed in transfected cells; host or cells: HEK 293
T2 sequence (Q9UL62 1-973): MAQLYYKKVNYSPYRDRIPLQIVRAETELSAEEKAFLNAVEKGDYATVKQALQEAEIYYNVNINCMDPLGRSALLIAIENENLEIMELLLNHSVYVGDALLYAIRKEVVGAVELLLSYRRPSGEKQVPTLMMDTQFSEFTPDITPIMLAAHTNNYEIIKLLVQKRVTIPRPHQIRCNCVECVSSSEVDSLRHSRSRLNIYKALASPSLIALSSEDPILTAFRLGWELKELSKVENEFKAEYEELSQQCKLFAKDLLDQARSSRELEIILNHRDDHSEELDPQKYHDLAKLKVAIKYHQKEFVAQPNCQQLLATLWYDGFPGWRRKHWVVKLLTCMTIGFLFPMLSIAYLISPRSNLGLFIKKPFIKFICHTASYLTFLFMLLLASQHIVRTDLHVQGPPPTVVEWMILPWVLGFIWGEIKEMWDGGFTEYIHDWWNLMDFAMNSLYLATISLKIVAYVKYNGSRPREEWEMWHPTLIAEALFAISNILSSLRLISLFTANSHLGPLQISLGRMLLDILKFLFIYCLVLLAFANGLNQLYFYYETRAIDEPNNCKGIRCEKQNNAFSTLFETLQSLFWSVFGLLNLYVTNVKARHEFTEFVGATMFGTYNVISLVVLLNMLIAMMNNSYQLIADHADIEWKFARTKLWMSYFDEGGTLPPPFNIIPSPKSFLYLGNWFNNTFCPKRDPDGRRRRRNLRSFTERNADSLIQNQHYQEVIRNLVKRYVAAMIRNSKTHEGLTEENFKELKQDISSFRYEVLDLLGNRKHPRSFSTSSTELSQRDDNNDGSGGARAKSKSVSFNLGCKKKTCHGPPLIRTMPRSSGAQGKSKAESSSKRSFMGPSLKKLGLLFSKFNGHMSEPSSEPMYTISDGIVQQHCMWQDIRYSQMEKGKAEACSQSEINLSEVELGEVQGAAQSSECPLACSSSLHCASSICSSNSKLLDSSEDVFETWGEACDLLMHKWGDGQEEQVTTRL
Description: TRPC5 fluorescence-based assay (Ca2+ flux assay in FLIPR format), cells overexpressing TRPC5. It counts as cell-based. As to conditions: 5 μM of test compound, following Carbachol stimulation.

Each structure is given as a SMILES string.

The inhibition is the relative decrease from the control value, in per cent. Take `Cc1nc2ccccc2n1CCNC(=O)c1ccccc1SCc1ccsc1`: the inhibition at 5 µM is 80.8% in assay [1] and 77.7% in assay [2].
On to `COc1ccc(/C=N/c2nc3ccccc3n2Cc2ccccc2)cc1OC`, for which the inhibition at 5 µM was 90.5% in assay [1] and 74.3% in assay [2].
For `COc1ccccc1Cn1c(C)nc2ccccc21`, the inhibition at 5 µM is 89.9% in assay [1] and 73.4% in assay [2].
In the case of `COc1ccccc1NC(=O)Cn1c(C)nc2ccccc21`, the inhibition at 5 µM in assay [1] was 84.1%; in assay [2], 72.7%.
As for `Clc1ccc(Cn2c(NCc3cccs3)nc3ccccc32)cc1`, the figures for the inhibition at 5 µM in assay [1] and in assay [2] were 37.5% and 72%, respectively.
As to `CCn1c(NCc2ccc(Br)cc2)nc2ccccc21`, the inhibition at 5 µM worked out at 77.3% in assay [1] and 71.6% in assay [2].
As to `CCCn1c(NCc2c[nH]c3ccccc23)nc2ccccc21`, the inhibition at 5 µM came to 54.7% in assay [1] and 70.6% in assay [2].
Turning to `Cc1ccccc1OCCn1c(C)nc2ccccc21`, the inhibition at 5 µM in assay [1] came out at 76.2%; in assay [2], 70%.
Regarding `COc1ccc(-n2c(SCC(=O)Nc3cccc(S(=O)(=O)N4CCOCC4)c3)nc3ccccc32)cc1`, the figures for the inhibition at 5 µM in assay [1] and in assay [2] were 6.92% and 69.6%, respectively.
As for `Cn1c(NCc2c[nH]c3ccccc23)nc2ccccc21`, the inhibition at 5 µM is 27.7% in assay [1] and 66.8% in assay [2].
`C#CCn1c(Cc2ccc(OC)c(OC)c2)nc2ccccc21`: the inhibition at 5 µM in assay [1] amounted to 91.5%; in assay [2] it was 66%.
Regarding `CCCn1c(NCc2ccc(N(CC)CC)cc2)nc2ccccc21`, the values for the inhibition at 5 µM in assay [1] and in assay [2] were 74.7% and 64.9%, respectively.
On to `c1csc(CNc2nc3ccccc3n2CCN2CCCCC2)c1`, for which the inhibition at 5 µM in assay [1] was 16.5%; in assay [2] it was 64.4%.
On to `Clc1ccc(Cn2cnc3ccccc32)c(Cl)c1`, for which the inhibition at 5 µM in assay [1] was found to be 85.5%; in assay [2], 63.5%.
The matching figures for `CCN(CC)CCn1c(NCc2ccccc2OC)nc2ccccc21`: 21.9% and 63.4%.
In the case of `COc1ccc(CCN2CCC(Nc3nc4ccccc4n3CCc3ccc(OC)cc3)CC2)cc1`, the inhibition at 5 µM was 68.9% in assay [1] and 63.3% in assay [2].
For `CC(C)c1ccc(CNc2nc3ccccc3n2C)cc1`, the inhibition at 5 µM was 80.6% in assay [1] and 50% in assay [2].
Taken in the same sequence, the figures for `CCn1c(NCc2ccccc2O)nc2ccccc21` were -8.69% and 50%.
The matching figures for `Nc1nc2ccccc2n1CCOc1ccccc1Cl`: 53.7% and 49.9%.
For the molecule `Nc1nc2ccccc2n1Cc1ccccc1F`, the inhibition at 5 µM in assay [1] was found to be 34.8%; in assay [2] it was 48.4%.
`CC(C)n1c(NCc2ccccc2)nc2ccccc21`: the results for the inhibition at 5 µM in assay [1] and in assay [2] were 22.4% and 48.4%, respectively.
On to `Cc1cc(NC(=O)Cn2c(NCc3ccccc3)nc3ccccc32)no1`, for which the figures for the inhibition at 5 µM in assay [1] and in assay [2] were 22.8% and 48%, respectively.
`Fc1cccc(Cl)c1Cn1c(-c2ccco2)nc2ccccc21`: the inhibition at 5 µM in assay [1] was 61.7%; in assay [2], 47.9%.
Take `CCCCc1nc2ccccc2n1CC(=O)N1CCCC1c1nc2ccccc2s1` (centres unmarked): the inhibition at 5 µM was -0.71% in assay [1] and 46.3% in assay [2].
As for `CCCn1c(NCc2ccccc2Cl)nc2ccccc21`, the inhibition at 5 µM was determined as 29.8% in assay [1] and 46% in assay [2].
For the molecule `Brc1cccc(CNc2nc3ccccc3n2CCN2CCOCC2)c1`, the inhibition at 5 µM in assay [1] is 18.5%; in assay [2] it was 45.8%.
On to `Cn1c(NCc2cccc3ccccc23)nc2ccccc21`, for which the inhibition at 5 µM in assay [1] was determined as 27.5%; in assay [2], 45.5%.
For `CCOc1ccccc1Nc1nc2ccccc2n1C(C)C`, the inhibition at 5 µM was determined as 40.7% in assay [1] and 45.1% in assay [2].
The matching figures for `C=C(C)Cn1c(-c2ccc(N(C)C)cc2)nc2ccccc21`: 45% and 45%.
For the molecule `COc1ccc(NCc2nc3ccccc3n2CCOc2ccccc2C)cc1`, the inhibition at 5 µM in assay [1] was found to be 58.5%; in assay [2], 44.9%.
With `CCOc1ccccc1CNc1nc2ccccc2n1C`, the figures for the inhibition at 5 µM in assay [1] and in assay [2] were 19.3% and 43.9%, respectively.
Turning to `CCCn1c(NCc2nc3ccccc3n2C)nc2ccccc21`, the inhibition at 5 µM in assay [1] was -6.21%; in assay [2], 42.8%.
Turning to `Cn1c(CC(O)c2ccccc2)nc2ccccc21` (centres unmarked), the values for the inhibition at 5 µM in assay [1] and in assay [2] were -9.99% and 42.3%, respectively.
Take `COc1ccc(CNc2nc3ccccc3n2C)c(OC)c1`: the results for the inhibition at 5 µM in assay [1] and in assay [2] were 19.4% and 41.3%, respectively.
For the molecule `CCCn1c(NCc2ccco2)nc2ccccc21`, the inhibition at 5 µM in assay [1] came out at 14.9%; in assay [2], 40.7%.
On to `OCCNc1nc2ccccc2n1CCOc1ccccc1`, for which the inhibition at 5 µM in assay [1] was 8.36%; in assay [2], 40.7%.
Consider `CCn1c(NCc2cccc(Br)c2)nc2ccccc21`, for which the results for the inhibition at 5 µM in assay [1] and in assay [2] were 54.1% and 39.9%, respectively.
For the molecule `Cc1ccc(Cn2c(C(C)(C)C)nc3ccccc32)cc1`, the figures for the inhibition at 5 µM in assay [1] and in assay [2] were 27.7% and 39.7%, respectively.
For the molecule `Cc1nc2ccccc2n1CC(=O)Nc1ccc(Cl)cc1`, the inhibition at 5 µM in assay [1] amounted to 70%; in assay [2], 39.7%.
With `CC(C)(C)C(=O)NCCc1nc2ccccc2n1Cc1ccc(Cl)cc1`, the inhibition at 5 µM in assay [1] was -7.07%; in assay [2], 38.9%.
Take `Nc1ccc(-c2nc3ccccc3n2CCCOc2ccccc2)cc1`: the results for the inhibition at 5 µM in assay [1] and in assay [2] were 27.3% and 38.6%, respectively.
For `COc1ccc(OCc2nc3ccccc3n2CCc2ccccc2)cc1`, the values for the inhibition at 5 µM in assay [1] and in assay [2] were 52% and 38.3%, respectively.
Turning to `CCOc1ccc(NCc2nc3ccccc3n2CCOc2ccccc2C)cc1`, the inhibition at 5 µM came out at 66.1% in assay [1] and 37.5% in assay [2].
Regarding `c1ccc(Cc2nc3ccccc3n2CCOc2ccccc2)cc1`, the inhibition at 5 µM in assay [1] was 17.7%; in assay [2], 36.7%.
Taken in the same sequence, the figures for `CC(C)n1c(Nc2ccccc2)nc2ccccc21` were 14.5% and 35.7%.
In the case of `Cc1ccccc1Cn1c(C2CC2)nc2ccccc21`, the inhibition at 5 µM in assay [1] was determined as 45.3%; in assay [2], 35.5%.
Consider `CCC(CC)c1nc2ccccc2n1Cc1ccccc1`, for which the inhibition at 5 µM in assay [1] worked out at 35.3%; in assay [2], 34.9%.
Regarding `CCSc1nc2ccccc2n1Cc1cccc([N+](=O)[O-])c1`, the inhibition at 5 µM in assay [1] came out at 50%; in assay [2], 32.2%.
Turning to `Cc1ccc(NC(=O)Cn2c(C)nc3ccccc32)cc1`, the inhibition at 5 µM in assay [1] came out at 81.8%; in assay [2], 32.1%.
For `CCCn1c(COc2ccccc2)nc2ccccc21`, the inhibition at 5 µM in assay [1] is 22.8%; in assay [2], 30.2%.
`CCCCn1c(NCc2ccc(N(CC)CC)cc2)nc2ccccc21`: the inhibition at 5 µM in assay [1] was determined as 30.3%; in assay [2], 28.7%.
On to `CCC(=O)NCCc1nc2ccccc2n1Cc1ccc(F)cc1`, for which the inhibition at 5 µM is 2.78% in assay [1] and 27% in assay [2].
